# Assay results taken from PubChem BioAssay AID330 (DTP/NCI, 2004).
# Several values for one entry are separate records, joined by “and”; a condition that tells them apart may be missing. Equal values may be shown once. Inconclusive results and toxic doses are left out.
# Test system: P388 leukemia ip, CD2F1 mice, survival T/C
# Experiment: NCI In Vivo Anticancer Drug Screen. Data for tumor model P388 Leukemia (intraperitoneal) in CD2F1 (CDF1) mice
# Settings: endpoint: median survival time, higher = longer survival
# Procedure, shortened: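 Mice carrying the transplanted tumor received test compound or vehicle. Survival was recorded in each group, and the value is the treated-group measurement divided by that of the vehicle-treated control group.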
# [1] = dose: 12.5 mg/kg/injection, schedule: Q01DX009 (ip), vehicle: saline with Tween-80
# [2] = dose: 25.0 mg/kg/injection, schedule: Q01DX009 (ip), vehicle: Klucel (hydroxypropylcellulose) (HPC)
# [3] = dose: 25.0 mg/kg/injection, schedule: Q01DX009 (ip), vehicle: saline with Tween-80
# [4] = dose: 50.0 mg/kg/injection, schedule: Q01DX009 (ip), vehicle: Klucel (hydroxypropylcellulose) (HPC)
# [5] = dose: 50.0 mg/kg/injection, schedule: Q01DX009 (ip), vehicle: saline with Tween-80
compound,measurement,setting,value
CC(C)NC(=O)OCc1c(COC(=O)NC(C)C)c(-c2ccc(Cl)c(Cl)c2)n2c1CCC2,T/C,"dose: 0.58 mg/kg/injection, schedule: Q01DX009 (ip), vehicle: saline with Tween-80",112 % of control
same,T/C,"dose: 1.17 mg/kg/injection, schedule: Q01DX009 (ip), vehicle: saline with Tween-80",120 % of control
same,T/C,"dose: 1.5 mg/kg/injection, schedule: Q01DX001 (ip), vehicle: other",109 % of control
same,T/C,"dose: 1.5 mg/kg/injection, schedule: Q01DX001 (iv), vehicle: other",102 % of control
same,T/C,"dose: 1.5 mg/kg/injection, schedule: Q01DX005 (ip), vehicle: other",122 % of control
same,T/C,"dose: 1.5 mg/kg/injection, schedule: Q01DX005 (iv), vehicle: other",107 % of control
same,T/C,"dose: 1.5 mg/kg/injection, schedule: Q01DX005 (oral), vehicle: other",98 % of control
same,T/C,"dose: 1.5 mg/kg/injection, schedule: Q01DX009 (oral), vehicle: other",100 % of control
same,T/C,"dose: 1.56 mg/kg/injection, schedule: Q01DX009 (ip), vehicle: distilled water + Tween-80",122 % of control
same,T/C,"dose: 2.34 mg/kg/injection, schedule: Q01DX009 (ip), vehicle: other",151 % of control
same,T/C,"dose: 2.34 mg/kg/injection, schedule: Q01DX009 (ip), vehicle: saline with Tween-80",151 % of control
same,T/C,"dose: 3.0 mg/kg/injection, schedule: Q01DX001 (ip), vehicle: other",116 % of control
same,T/C,"dose: 3.0 mg/kg/injection, schedule: Q01DX001 (iv), vehicle: other",100 % of control
same,T/C,"dose: 3.0 mg/kg/injection, schedule: Q01DX001 (oral), vehicle: other",98 % of control
same,T/C,"dose: 3.0 mg/kg/injection, schedule: Q01DX005 (iv), vehicle: other",108 % of control
same,T/C,"dose: 3.0 mg/kg/injection, schedule: Q01DX005 (oral), vehicle: other",100 % of control
same,T/C,"dose: 3.0 mg/kg/injection, schedule: Q01DX009 (oral), vehicle: other",100 % of control
same,T/C,"dose: 3.13 mg/kg/injection, schedule: Q01DX009 (ip), vehicle: distilled water + Tween-80",117 % of control
same,T/C,"dose: 4.69 mg/kg/injection, schedule: Q01DX009 (ip), vehicle: other",154 % of control
same,T/C,"dose: 4.69 mg/kg/injection, schedule: Q01DX009 (ip), vehicle: saline with Tween-80",150 % of control and 153 % of control
same,T/C,"dose: 6.0 mg/kg/injection, schedule: Q01DX001 (iv), vehicle: other",104 % of control
same,T/C,"dose: 6.0 mg/kg/injection, schedule: Q01DX001 (oral), vehicle: other",99 % of control
same,T/C,"dose: 6.0 mg/kg/injection, schedule: Q01DX005 (iv), vehicle: other",114 % of control
same,T/C,"dose: 6.0 mg/kg/injection, schedule: Q01DX005 (oral), vehicle: other",98 % of control
same,T/C,"dose: 6.0 mg/kg/injection, schedule: Q01DX009 (ip), vehicle: other",152 % of control
same,T/C,"dose: 6.0 mg/kg/injection, schedule: Q01DX009 (oral), vehicle: other",100 % of control
same,T/C,"dose: 6.25 mg/kg/injection, schedule: Q01DX005 (ip), vehicle: Klucel (hydroxypropylcellulose) (HPC)",164 % of control and 168 % of control
same,T/C,"dose: 6.25 mg/kg/injection, schedule: Q01DX005 (ip), vehicle: other",164 % of control
same,T/C,"dose: 6.25 mg/kg/injection, schedule: Q01DX005 (ip), vehicle: saline with Tween-80",151 % of control
same,T/C,"dose: 6.25 mg/kg/injection, schedule: Q01DX009 (ip), vehicle: other",155 % of control and 160 % of control
same,T/C,"dose: 6.25 mg/kg/injection, schedule: Q01DX009 (ip), vehicle: saline with Tween-80",158 % of control
same,T/C,"dose: 6.25 mg/kg/injection, schedule: Q01DX009 (oral), vehicle: distilled water + Tween-80",97 % of control
same,T/C,"dose: 7.5 mg/kg/injection, schedule: Q01DX005 (ip), vehicle: saline with Tween-80",118 % of control
same,T/C,"dose: 9.38 mg/kg/injection, schedule: Q01DX009 (ip), vehicle: other",154 % of control and 198 % of control
same,T/C,"dose: 9.38 mg/kg/injection, schedule: Q01DX009 (ip), vehicle: saline with Tween-80",157 % of control
same,T/C,"dose: 12.0 mg/kg/injection, schedule: Q01DX001 (iv), vehicle: other",113 % of control
same,T/C,"dose: 12.0 mg/kg/injection, schedule: Q01DX001 (oral), vehicle: other",100 % of control
same,T/C,"dose: 12.0 mg/kg/injection, schedule: Q01DX005 (ip), vehicle: other",153 % of control
same,T/C,"dose: 12.0 mg/kg/injection, schedule: Q01DX005 (oral), vehicle: other",100 % of control
same,T/C,"dose: 12.0 mg/kg/injection, schedule: Q01DX009 (ip), vehicle: other",169 % of control
same,T/C,"dose: 12.0 mg/kg/injection, schedule: Q01DX009 (oral), vehicle: other",102 % of control
same,T/C,"dose: 12.5 mg/kg/injection, schedule: Q01DX005 (ip), vehicle: Klucel (hydroxypropylcellulose) (HPC)",151 % of control and 160 % of control and 163 % of control
same,T/C,"dose: 12.5 mg/kg/injection, schedule: Q01DX005 (ip), vehicle: other",177 % of control
same,T/C,"dose: 12.5 mg/kg/injection, schedule: Q01DX009 (ip), vehicle: other",165 % of control and 167 % of control
same,T/C,[1],151 % of control
same,T/C,"dose: 12.5 mg/kg/injection, schedule: Q01DX009 (oral), vehicle: distilled water + Tween-80",103 % of control
same,T/C,"dose: 18.75 mg/kg/injection, schedule: Q01DX009 (ip), vehicle: saline with Tween-80",166 % of control and 167 % of control
same,T/C,"dose: 24.0 mg/kg/injection, schedule: Q01DX001 (oral), vehicle: other",100 % of control
same,T/C,"dose: 24.0 mg/kg/injection, schedule: Q01DX005 (ip), vehicle: other",178 % of control
same,T/C,"dose: 24.0 mg/kg/injection, schedule: Q01DX005 (oral), vehicle: other",102 % of control
same,T/C,"dose: 24.0 mg/kg/injection, schedule: Q01DX009 (ip), vehicle: other",184 % of control
same,T/C,"dose: 24.0 mg/kg/injection, schedule: Q01DX009 (oral), vehicle: other",102 % of control
same,T/C,"dose: 25.0 mg/kg/injection, schedule: Q01DX005 (ip), vehicle: Klucel (hydroxypropylcellulose) (HPC)",154 % of control and 168 % of control and 179 % of control
same,T/C,"dose: 25.0 mg/kg/injection, schedule: Q01DX005 (ip), vehicle: other",199 % of control
same,T/C,"dose: 25.0 mg/kg/injection, schedule: Q01DX005 (ip), vehicle: saline with Tween-80",162 % of control
same,T/C,[2],168 % of control
same,T/C,"dose: 25.0 mg/kg/injection, schedule: Q01DX009 (ip), vehicle: other",100 % of control
same,T/C,[3],166 % of control
same,T/C,"dose: 25.0 mg/kg/injection, schedule: Q01DX009 (oral), vehicle: distilled water + Tween-80",92 % of control
same,T/C,"dose: 40.0 mg/kg/injection, schedule: Q01DX009 (ip), vehicle: Klucel (hydroxypropylcellulose) (HPC)",155 % of control
same,T/C,"dose: 48.0 mg/kg/injection, schedule: Q01DX001 (ip), vehicle: other",168 % of control
same,T/C,"dose: 48.0 mg/kg/injection, schedule: Q01DX001 (oral), vehicle: other",100 % of control
same,T/C,"dose: 48.0 mg/kg/injection, schedule: Q01DX005 (ip), vehicle: other",174 % of control
same,T/C,"dose: 48.0 mg/kg/injection, schedule: Q01DX005 (oral), vehicle: other",107 % of control
same,T/C,"dose: 48.0 mg/kg/injection, schedule: Q01DX009 (ip), vehicle: other",106 % of control
same,T/C,"dose: 48.0 mg/kg/injection, schedule: Q01DX009 (oral), vehicle: other",119 % of control
same,T/C,"dose: 50.0 mg/kg/injection, schedule: Q01DX005 (ip), vehicle: Klucel (hydroxypropylcellulose) (HPC)",163 % of control and 205 % of control and 206 % of control
same,T/C,"dose: 50.0 mg/kg/injection, schedule: Q01DX005 (ip), vehicle: other",186 % of control
same,T/C,[4],239 % of control
same,T/C,[5],187 % of control
same,T/C,"dose: 50.0 mg/kg/injection, schedule: Q01DX009 (oral), vehicle: distilled water + Tween-80",110 % of control
same,T/C,"dose: 60.0 mg/kg/injection, schedule: Q01DX005 (ip), vehicle: saline with Tween-80",151 % of control
same,T/C,"dose: 100.0 mg/kg/injection, schedule: Q01DX005 (ip), vehicle: saline with Tween-80",90 % of control
same,T/C,"dose: 100.0 mg/kg/injection, schedule: Q01DX009 (ip), vehicle: distilled water + Tween-80",113 % of control
same,T/C,"dose: 100.0 mg/kg/injection, schedule: Q01DX009 (ip), vehicle: saline with Tween-80",177 % of control
same,T/C,"dose: 100.0 mg/kg/injection, schedule: Q01DX009 (oral), vehicle: distilled water + Tween-80",97 % of control
same,T/C,"dose: 200.0 mg/kg/injection, schedule: Q01DX005 (ip), vehicle: distilled water + Tween-80",104 % of control
same,T/C,"dose: 200.0 mg/kg/injection, schedule: Q01DX009 (oral), vehicle: distilled water + Tween-80",111 % of control
C[C@]12CCCC[C@@H]1CC[C@@H]1[C@@H]2CC[C@]2(C)[C@@H](N(CCO)CCCO)CC[C@@H]12,T/C,"dose: 12.5 mg/kg/injection, schedule: Q01DX009 (ip), vehicle: Klucel (hydroxypropylcellulose) (HPC)",93 % of control
same,T/C,[2],99 % of control
same,T/C,[4],88 % of control
O=C1C=CC(=O)N1c1ccc([N+](=O)[O-])cc1,T/C,[1],101 % of control
same,T/C,[3],101 % of control
same,T/C,[5],99 % of control
